According to patent publication US20230158025A1 (UNIVERSITY OF UTAH RESEARCH FOUNDATION, priority 2020, published 2023):
Where two headings read alike, the source gives them in different places. Values belong to the compound of their own block, whether it stands above or below them.

Tests used:
[1] = rat microsomal stability (RLM)
recombinant human GALK1 = recombinant human GALK1 (Homo sapiens, UniProt P51570); experiment: hGALK1 biochemical activity assay (Kinase-Glo Plus, ATP depletion)
Description: In vitro hGALK1 activity assays were performed as previously described. Liu et al., Bioorg. Med. Chem. Lett. 25(3): 721-727 (2015), which is incorporated by reference herein for the specific teachings thereof. The biochemical assay was performed by coupling the activity of recombinant human or mouse GALK1 to the Kinase-Glo Plus luminescent ATP detection kit, using ATP depletion as a measure of GALK1 turnover. Specifically, three μL/well of ATP substrate solution (35 μM ATP) in assay buffer (20 mM HEPES pH 8.0, 5 mM MgCl2, 60 mM NaCl, 1 mM DTT, 0.01% BSA final concentration) was dispensed into 1536-well assay plates (Greiner, white solid-bottom medium-binding plates). Aliquots of compound (23 nL solubilized in DMSO) were transferred to the assay plates using a Kalypsys 1536-well pintool such that 11 concentrations with 1/3 dilutions ranging from 57.4 μM-0.97 nM are tested. One μL/well of GALK-galactose solution (5 nM GALK1, 100 μM galactose) in assay buffer was then added, yielding a final reaction volume of 4 μL/well. Following a 1-hour room temperature incubation, 4 μL of Kinase-Glo Plus detection reagent was added to provide an ATP-dependent luminescent readout (final assay volume: 8 μL/well).

[2] = aqueous kinetic solubility
recombinant mouse GALK1 = recombinant mouse GALK1 (Mus musculus, UniProt Q9R0N0); experiment: mGALK1 biochemical activity assay (Kinase-Glo Plus, ATP depletion)
Description: In vitro hGALK1 activity assays were performed as previously described. Liu et al., Bioorg. […] The biochemical assay was performed by coupling the activity of recombinant human or mouse GALK1 to the Kinase-Glo Plus luminescent ATP detection kit, using ATP depletion as a measure of GALK1 turnover. […] One μL/well of GALK-galactose solution (5 nM GALK1, 100 μM galactose) in assay buffer was then added, yielding a final reaction volume of 4 μL/well. Following a 1-hour room temperature incubation, 4 μL of Kinase-Glo Plus detection reagent was added to provide an ATP-dependent luminescent readout (final assay volume: 8 μL/well).

[3] = recombinant human GALK1, Kinase-Glo Plus ATP depletion, read-out: hGALK
[4] = Tables 2-15, 35 μM ATP, 100 μM galactose, 1 h, bracketed figure after some values (e.g. −1.2) is undefined and not reported, read-out: hGALK IC50
[5] = recombinant mouse GALK1, Kinase-Glo Plus ATP depletion, read-out: mGALK
[6] = Tables 2-15, 35 μM ATP, 100 μM galactose, 1 h, bracketed figure after some values (e.g. −1.2) is undefined and not reported
[7] = recombinant human GALK1, Kinase-Glo Plus ATP depletion
[8] = Tables 2-15, 35 μM ATP, 100 μM galactose, 1 h, bracketed figure after some values is undefined and not reported
[9] = recombinant mouse GALK1, Kinase-Glo Plus ATP depletion
[10] = microsomal stability half-life, minutes
[11] = recombinant human GALK1, Kinase-Glo Plus ATP depletion, bracketed figure in the cell, e.g. (−1.2), is not defined in the text shown, read-out: hGALK
[12] = recombinant mouse GALK1, Kinase-Glo Plus ATP depletion, bracketed figure in the cell, e.g. (−1.2), is not defined in the text shown, read-out: mGALK

recombinant human GALK1, sequence (P51570 whole entry): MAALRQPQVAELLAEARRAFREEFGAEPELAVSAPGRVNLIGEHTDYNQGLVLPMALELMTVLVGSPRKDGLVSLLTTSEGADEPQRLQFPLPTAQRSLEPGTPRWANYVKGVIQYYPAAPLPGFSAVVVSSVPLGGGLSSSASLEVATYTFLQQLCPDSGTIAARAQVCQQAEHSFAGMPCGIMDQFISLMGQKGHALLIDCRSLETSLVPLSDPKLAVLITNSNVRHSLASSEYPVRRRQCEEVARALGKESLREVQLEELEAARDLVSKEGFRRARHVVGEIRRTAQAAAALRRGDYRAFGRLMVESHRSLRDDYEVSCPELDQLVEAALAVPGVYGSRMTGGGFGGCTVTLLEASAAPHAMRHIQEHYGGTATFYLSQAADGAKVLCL
recombinant mouse GALK1, sequence (Q9R0N0 whole entry): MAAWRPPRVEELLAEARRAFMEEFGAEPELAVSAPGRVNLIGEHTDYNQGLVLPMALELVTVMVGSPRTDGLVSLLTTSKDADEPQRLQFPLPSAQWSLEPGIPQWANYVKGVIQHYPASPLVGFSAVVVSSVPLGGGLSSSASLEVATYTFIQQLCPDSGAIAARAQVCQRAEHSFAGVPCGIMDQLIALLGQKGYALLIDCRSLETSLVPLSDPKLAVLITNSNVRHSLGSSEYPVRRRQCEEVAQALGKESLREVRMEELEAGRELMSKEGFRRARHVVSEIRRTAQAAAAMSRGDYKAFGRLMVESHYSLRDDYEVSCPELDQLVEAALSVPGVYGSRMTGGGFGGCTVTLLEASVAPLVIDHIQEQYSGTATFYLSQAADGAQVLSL

Metab. Stabil. (m) ([1]; microsomal half-life): >30 m
IC50 (recombinant human GALK1; [3]): 3.43 µM
Sol. [2]: <1 µg/mL
Perm. (1 × 10^−6 cm/sec) (PAMPA permeability): <4.9 1 × 10^−6 cm/sec
SMILES: CC1=C(C(=O)Nc2cc(C(=O)O)ccn2)C(c2ccc(-c3ccccc3)cc2Cl)N=C(Nc2nc3ccc(F)cc3o2)N1 (stereo not shown) [Compound 65, 2-(4-(3-chloro-[1,1′-biphenyl]-4-yl)-2-((6-fluorobenzo[d]oxazol-2-yl)amino)-6-methyl-1,4-dihydropyrimidine-5-carboxamido)isonicotinic acid]

SMILES: CC1=C(C(=O)Nc2cc(C(=O)O)ccn2)C(c2ccc(C(=O)O)cc2Cl)N=C(Nc2nc3ccc(F)cc3o2)N1 (stereo not shown) [Compound 72, 2-(4-(4-carboxy-2-chlorophenyl)-2-((6-fluorobenzo[d]oxazol-2-yl)amino)-6-methyl-1,4-dihydropyrimidine-5-carboxamido)isonicotinic acid]
Metab. Stabil. (m) ([1]; microsomal half-life): >30 m
IC50 (recombinant human GALK1; [4]): 2.17 µM
IC50 (recombinant human GALK1; [3]): 2.17 µM
Sol. [2]: >83 µg/mL
Perm. (1 × 10^−6 cm/sec) (PAMPA permeability): <1 1 × 10^−6 cm/sec

Metab. Stabil. (m) ([1]; microsomal half-life): 25.2784 m
IC50 (recombinant mouse GALK1; [5]): 7.08 µM
Sol. [2]: <1 µg/mL
Perm. (1 × 10^−6 cm/sec) (PAMPA permeability): 177.1 1 × 10^−6 cm/sec
SMILES: COC(=O)c1ccnc(NC(=O)C2=C(C)NC(Nc3nc4cccc(N)c4o3)=NC2c2ccc(C)cc2Cl)c1 (stereo not shown) [Compound 91]

Metab. Stabil. (m) ([1]; microsomal half-life): >30 m
IC50 (recombinant human GALK1; [3]): 10.9 µM
Sol. [2]: 1.8 µg/mL
Perm. (1 × 10^−6 cm/sec) (PAMPA permeability): 4.4 1 × 10^−6 cm/sec
SMILES: CC1=C(C(=O)Nc2nnc(-c3cccnc3)s2)C(c2ccccc2Cl)N=C(Nc2nc3cc(N)ccc3o2)N1 (stereo not shown) [Compound 101, 2-((5-aminobenzo[d]oxazol-2-yl)amino)-4-(2-chlorophenyl)-6-methyl-N-(5-(pyridin-3-yl)-1,3,4-thiadiazol-2-yl)-1,4-dihydropyrimidine-5-carboxamide]

Metab. Stabil. (m) ([1]; microsomal half-life): >30 m
IC50 (recombinant human GALK1; [4]): 24.3 µM
IC50 (recombinant human GALK1; [3]): 24.3 µM
Sol. [2]: 42.2 µg/mL
Perm. (1 × 10^−6 cm/sec) (PAMPA permeability): 4.14 1 × 10^−6 cm/sec
SMILES: CC1=C(C(=O)Nc2cc(C(=O)O)ccn2)C(c2ccc(C)cc2Cl)N=C(Nc2ncc(-c3ccccc3)o2)N1 (stereo not shown) [Compound 103, 2-(4-(2-chloro-4-methylphenyl)-6-methyl-2-((5-phenyloxazol-2-yl)amino)-1,4-dihydropyrimidine-5-carboxamido)isonicotinic acid]

IC50 (recombinant human GALK1; [3]): 0.07 µM
IC50 (recombinant mouse GALK1; [5]): 0.97 µM
Sol. ([2]; aqueous kinetic solubility): 2.05 µg/mL
Perm. (1 × 10^−6 cm/sec) (PAMPA permeability; PAMPA): 407.39 1 × 10^−6 cm/sec
SMILES: CCn1cc(CNC(=O)C2=C(C)NC(Nc3nc4ccc(F)c(N)c4o3)=N[C@H]2c2ccc(C)cc2Cl)cn1 [Compound 135, (R)-2-((7-amino-6-fluorobenzo[d]oxazol-2-yl)amino)-4-(2-chloro-4-methylphenyl)-N-((1-ethyl-1H-pyrazol-4-yl)methyl)-6-methyl-1,4-dihydropyrimidine-5-carboxamide]

Metab. Stabil. (m) ([1]; microsomal stability half-life): 17.7182 m
IC50 (recombinant mouse GALK1; Tables 2-15, 35 μM ATP, 100 μM galactose, 1 h, bracketed figure after some values is undefined and not reported, read-out: mGALK IC50): 9.68 µM
IC50 (recombinant mouse GALK1; [5]): 9.68 µM
Sol. ([2]; aqueous kinetic solubility): <1 µg/mL
Perm. (1 × 10^−6 cm/sec) (PAMPA permeability; PAMPA): 25.4 1 × 10^−6 cm/sec
SMILES: COC(=O)c1ccc(NC(=O)C2=C(C)NC(Nc3nc4ccccc4o3)=NC2c2ccccc2Cl)cc1 (stereo not shown) [Compound 138]

Metab. Stabil. (m) ([1]; microsomal stability half-life): >30 m
IC50 (recombinant human GALK1; [3]): 3.85 µM
Sol. ([2]; aqueous kinetic solubility): <1 µg/mL
Papp (PAMPA permeability; PAMPA, Perm. (1 × 10^−6 cm/sec)): 8.8 ×10⁻⁶ cm/s
SMILES: CCOC(=O)c1cccc(NC(=O)C2=C(C)NC(Nc3nc4ccccc4o3)=NC2c2ccccc2Cl)c1 (stereo not shown) [Compound 139, ethyl 3-(2-(benzo[d]oxazol-2-ylamino)-4-(2-chlorophenyl)-6-methyl-1,4-dihydropyrimidine-5-carboxamido)benzoate]

Metab. Stabil. (m) ([1]; microsomal stability half-life): 4.223 m
hGALK IC50 (recombinant human GALK1; [6]): inactive
hGALK (μM) (recombinant human GALK1; [7]): in- active
mGALK IC50 (recombinant mouse GALK1; [8]): inactive
mGALK (μM) (recombinant mouse GALK1; [9]): in- active
Sol. ([2]; aqueous kinetic solubility): <1 µg/mL
SMILES: CC1=C(C(=O)NCc2ccccc2Cl)C(c2ccccc2Cl)N=C(Nc2nc3ccccc3o2)N1 (stereo not shown) [Compound 216, 2-(benzo[d]oxazol-2-ylamino)-N-(2-chlorobenzyl)-4-(2-chlorophenyl)-6-methyl-1,4-dihydropyrimidine-5-carboxamide]

Metab. Stabil. (m) ([1]; microsomal stability half-life): 11.34 m
IC50 (recombinant human GALK1; [4]): 7.69 µM
IC50 (recombinant human GALK1; [3]): 7.69 µM
mGALK IC50 (recombinant mouse GALK1; [8]): inactive
mGALK (μM) (recombinant mouse GALK1; [9]): in- active
Sol. ([2]; aqueous kinetic solubility): <1 µg/mL
SMILES: CC1=C(C(=O)NCc2ccc(F)cc2)C(c2ccccc2Cl)N=C(Nc2nc3ccccc3o2)N1 (stereo not shown) [Compound 217]

Metab. Stabil. (m) ([1]; microsomal stability half-life): 8.726 m
hGALK IC50 (recombinant human GALK1; [6]): inactive
hGALK (μM) (recombinant human GALK1; [7]): in- active
mGALK IC50 (recombinant mouse GALK1; [8]): inactive
mGALK (μM) (recombinant mouse GALK1; [9]): in- active
Sol. ([2]; aqueous kinetic solubility): 40.5 µg/mL
SMILES: CC1=C(C(=O)NCc2cn(C)cn2)[C@@H](c2ccccc2Cl)N=C(Nc2nc3ccccc3o2)N1 [Compound 236, (S)-2-(benzo[d]oxazol-2-ylamino)-4-(2-chlorophenyl)-6-methyl-N-((1-methyl-1H-imidazol-4-yl)methyl)-1,4-dihydropyrimidine-5-carboxamide]

Metab. Stabil. (m) ([1]; microsomal stability half-life): 19.30 m
hGALK (μM) (recombinant human GALK1; [7]): in- active
IC50 (recombinant mouse GALK1; [5]): 13.7 µM
Sol. ([2]; aqueous kinetic solubility): <1 µg/mL
SMILES: CCOC(=O)C1=C(C)NC(Nc2nc3ccccc3o2)=NC1c1ccccc1Cl (stereo not shown) [Compound 239, ethyl 2-(benzo[d]oxazol-2-ylamino)-4-(2-chlorophenyl)-6-methyl-1,4-dihydropyrimidine-5-carboxylate]

Metab. Stabil. (m) ([1]; microsomal stability half-life): 57.5 m
hGALK (μM) (recombinant human GALK1; [7]): in- active
mGALK (μM) (recombinant mouse GALK1; [9]): in- active
Sol. ([2]; aqueous kinetic solubility): <1 µg/mL
SMILES: CCOC(=O)C1=C(C(C)C)NC(Nc2nc3ccccc3o2)=NC1c1ccccc1Cl (stereo not shown) [Compound 240, ethyl 2-(benzo[d]oxazol-2-ylamino)-4-(2-chlorophenyl)-6-isopropyl-1,4-dihydropyrimidine-5-carboxylate]

Metab. Stabil. (m) ([1]; microsomal stability half-life): 10.46 m
hGALK (μM) (recombinant human GALK1; [7]): in- active
mGALK (μM) (recombinant mouse GALK1; [9]): in- active
Sol. ([2]; aqueous kinetic solubility): 2.65 µg/mL
SMILES: COC(=O)C1=C(C(F)(F)F)NC(Nc2nc3ccccc3o2)=NC1c1ccccc1Cl (stereo not shown) [Compound 241, methyl 2-(benzo[d]oxazol-2-ylamino)-4-(2-chlorophenyl)-6-(trifluoromethyl)-1,4-dihydropyrimidine-5-carboxylate]

SMILES: O=C1NCCC2=C1C(c1ccccc1Cl)N=C(Nc1nc3ccccc3o1)N2 (stereo not shown) [Compound 245, 2-(benzo[d]oxazol-2-ylamino)-4-(2-chlorophenyl)-4,6,7,8-tetrahydropyrido[4,3-d]pyrimidin-5(1H)-one]
Metab. Stabil. (m) [1, 10]: 27.12 m
IC50 (recombinant human GALK1; [11]): 17.2 µM
IC50 (recombinant mouse GALK1; [12]): 21.7 µM
Sol. ([2]; aqueous kinetic solubility): <1 µg/mL

Metab. Stabil. (m) [1, 10]: >30 m
IC50 (recombinant mouse GALK1; [12]): 19.3 µM
Sol. ([2]; aqueous kinetic solubility): <1 µg/mL
Perm. (1 × 10^−6 cm/sec) (PAMPA permeability; PAMPA): 319.8 1 × 10^−6 cm/sec
SMILES: COCC1=C(C(=O)Nc2nncs2)C(c2ccccc2Cl)N=C(Nc2nc3ccccc3o2)N1 (stereo not shown) [Compound 247]

SMILES: CC1=C(C(=O)Nc2cc(C(=O)O)ccn2)C(c2ccccc2Cl)N=C(Nc2nc3ccccc3o2)N1CC(=O)O (stereo not shown) [Compound 272]
Metab. Stabil. (m) [1, 10]: >30 m
IC50 (recombinant human GALK1; read-out: hGALK): 3.43 µM
IC50 (recombinant mouse GALK1; [12]): 13.7 µM
Sol. ([2]; aqueous kinetic solubility): >83 µg/mL

Metab. Stabil. (m) [1, 10]: >30 m
IC50 (recombinant human GALK1; [11]): 21.7 µM
IC50 (recombinant mouse GALK1; [12]): 34.3 µM
Sol. ([2]; aqueous kinetic solubility): >76 µg/mL
SMILES: CC1=C(C(=O)Nc2cc(C(=O)O)ccn2)C(c2ccccc2Cl)N=C(Nc2nc3ccccc3o2)N1C (stereo not shown) [Compound 273, 2-(2-(benzo[d]oxazol-2-ylamino)-4-(2-chlorophenyl)-1,6-dimethyl-1,4-dihydropyrimidine-5-carboxamido)isonicotinic acid]

Metab. Stabil. (m) [1, 10]: 20.79 m
IC50 (recombinant mouse GALK1; [12]): 4.32 µM
Sol. ([2]; aqueous kinetic solubility): 10.84 µg/mL
Perm. (1 × 10^−6 cm/sec) (PAMPA permeability; PAMPA): 219.68 1 × 10^−6 cm/sec
SMILES: CN(C)C(=O)C1CC(=O)C2=C(C1)NC(Nc1nc3ccccc3o1)=NC2c1ccccc1Cl (stereo not shown) [Compound 277, 2-(benzo[d]oxazol-2-ylamino)-4-(2-chlorophenyl)-N,N-dimethyl-5-oxo-1,4,5,6,7,8-hexahydroquinazoline-7-carboxamide]
